Patent US12674135B2, “Three-dimensional culture of immortalized skin cells on the superficial layer of which a stratum corneum is formed, method for producing said three-dimensional culture, and method for evaluating test substance using said three-dimensional culture” (National Institute of Advanced Industrial Science and …, priority 2020, dated 2026)

Assays:
[1] = tested on: IL-8 promoter (red light-emitting luciferase) in three-dimensional culture of HaCaT
Excerpt: (§1) The thus obtained HaCaT was used to obtain a three-dimensional culture by the same method as in Example 1. The three-dimensional culture was a three-dimensional culture in which a Cellbed was used as a plate-like substrate as in Example 1, to which a HaCaT culture layered product was adhered, and the superficial layer of the three-dimensional culture was the stratum corneum.
(§2) A cell culture insert (Falcon Culture Insert #353095) comprising a clear, colorless, PET membrane with a 0.4 μm pore size bottom for 24 wells was inserted into the wells of a 24-well plate for cell culture with black walls and a colorless bottom, the three-dimensional culture was placed in the bottom of the culture insert with the cells on top, and 0.8 mL of KGM-gold containing 0.2 mM luciferin potassium salt was placed in the well outside the culture insert. For sensitization evaluation, a test substance was loaded from the top of the three-dimensional culture inside the insert. […] As a solvent control, 30 μL of KGM medium was added from the top of the three-dimensional culture. Plastic paraffin film was sprinkled around this well plate and the luminescence was measured for 0 to 72 hours with a real-time luminescence monitoring system for cultured cells, Kronos HT (manufactured by ATTO Corporation). Measurements were taken every minute for 10 seconds for each color and continued for 0 to 72 hours. […]

[2] = tested on: IL-8 promoter (red light-emitting luciferase) in three-dimensional culture of HaCaT; settings: 20 μM, 100 μM and 200 μM, loaded from bottom and top surfaces, 0 to 72 hours, FIG. 15
Excerpt: as §1
A cell culture insert (Falcon Culture Insert #353095) comprising a clear, colorless, PET membrane with a 0.4 μm pore size bottom for 24 wells was inserted into the wells of a 24-well plate for cell culture with black walls and a colorless bottom, the three-dimensional culture obtained in Example 3 was placed in the bottom of the culture insert with the cells on top. […] 0.8 mL of this medium was placed on the outside of the culture insert, and then 30 μL was loaded from the top of the three-dimensional culture. […]
Plastic paraffin film was sprinkled around this well plate and the luminescence was measured for 0 to 72 hours with a real-time luminescence monitoring system for cultured cells, Kronos HT (manufactured by ATTO Corporation). The bioluminescence intensity of each luciferase was measured on these three-dimensional cultures as in Example 5.

[3] = tested on: IL-8 promoter (red light-emitting luciferase) in three-dimensional culture of HaCaT; assay: Skin sensitization evaluation: test substance loaded from the top of the three-dimensional HaCaT culture, multicolor luciferase luminescence (IL-8 promoter red / UBC promoter green); settings: range of from 200 µM to 2 mM in KGM medium, 30 μL loaded only from the top, up to 72 hours, FIG. 10
Excerpt: as §1, §2

SMILES | emission intensity, concentration dependence [1] | bioluminescence intensity ratio of red light-emitting luciferase (IL-8 promoter) to green light-emitting luciferase (ubiquitin C promoter) [2] | relative bioluminescence intensity of red light-emitting luciferase (IL-8 promoter) to green light-emitting luciferase (ubiquitin C promoter) [3]
CCCCN(CCCC)c1ccccc1 [DA, dibutylaniline] | concentration dependence was observed |  | 
Oc1ccc(O)cc1 [HQ, hydroquinone] |  | increased in a concentration-dependent manner | concentration-dependent increase
